Each structure is given as a SMILES string.

The target of the assay is T1, dihydropyridine (DHP) site (Oryctolagus cuniculus, UniProt P07293).
T1 construct: Washed rabbit skeletal muscle membranes (fraction 2-8X); from tissue; host or cells: rabbit skeletal muscle, washed membranes (fraction 2-8X)
T1 sequence (P07293 1-1664 limits assumed): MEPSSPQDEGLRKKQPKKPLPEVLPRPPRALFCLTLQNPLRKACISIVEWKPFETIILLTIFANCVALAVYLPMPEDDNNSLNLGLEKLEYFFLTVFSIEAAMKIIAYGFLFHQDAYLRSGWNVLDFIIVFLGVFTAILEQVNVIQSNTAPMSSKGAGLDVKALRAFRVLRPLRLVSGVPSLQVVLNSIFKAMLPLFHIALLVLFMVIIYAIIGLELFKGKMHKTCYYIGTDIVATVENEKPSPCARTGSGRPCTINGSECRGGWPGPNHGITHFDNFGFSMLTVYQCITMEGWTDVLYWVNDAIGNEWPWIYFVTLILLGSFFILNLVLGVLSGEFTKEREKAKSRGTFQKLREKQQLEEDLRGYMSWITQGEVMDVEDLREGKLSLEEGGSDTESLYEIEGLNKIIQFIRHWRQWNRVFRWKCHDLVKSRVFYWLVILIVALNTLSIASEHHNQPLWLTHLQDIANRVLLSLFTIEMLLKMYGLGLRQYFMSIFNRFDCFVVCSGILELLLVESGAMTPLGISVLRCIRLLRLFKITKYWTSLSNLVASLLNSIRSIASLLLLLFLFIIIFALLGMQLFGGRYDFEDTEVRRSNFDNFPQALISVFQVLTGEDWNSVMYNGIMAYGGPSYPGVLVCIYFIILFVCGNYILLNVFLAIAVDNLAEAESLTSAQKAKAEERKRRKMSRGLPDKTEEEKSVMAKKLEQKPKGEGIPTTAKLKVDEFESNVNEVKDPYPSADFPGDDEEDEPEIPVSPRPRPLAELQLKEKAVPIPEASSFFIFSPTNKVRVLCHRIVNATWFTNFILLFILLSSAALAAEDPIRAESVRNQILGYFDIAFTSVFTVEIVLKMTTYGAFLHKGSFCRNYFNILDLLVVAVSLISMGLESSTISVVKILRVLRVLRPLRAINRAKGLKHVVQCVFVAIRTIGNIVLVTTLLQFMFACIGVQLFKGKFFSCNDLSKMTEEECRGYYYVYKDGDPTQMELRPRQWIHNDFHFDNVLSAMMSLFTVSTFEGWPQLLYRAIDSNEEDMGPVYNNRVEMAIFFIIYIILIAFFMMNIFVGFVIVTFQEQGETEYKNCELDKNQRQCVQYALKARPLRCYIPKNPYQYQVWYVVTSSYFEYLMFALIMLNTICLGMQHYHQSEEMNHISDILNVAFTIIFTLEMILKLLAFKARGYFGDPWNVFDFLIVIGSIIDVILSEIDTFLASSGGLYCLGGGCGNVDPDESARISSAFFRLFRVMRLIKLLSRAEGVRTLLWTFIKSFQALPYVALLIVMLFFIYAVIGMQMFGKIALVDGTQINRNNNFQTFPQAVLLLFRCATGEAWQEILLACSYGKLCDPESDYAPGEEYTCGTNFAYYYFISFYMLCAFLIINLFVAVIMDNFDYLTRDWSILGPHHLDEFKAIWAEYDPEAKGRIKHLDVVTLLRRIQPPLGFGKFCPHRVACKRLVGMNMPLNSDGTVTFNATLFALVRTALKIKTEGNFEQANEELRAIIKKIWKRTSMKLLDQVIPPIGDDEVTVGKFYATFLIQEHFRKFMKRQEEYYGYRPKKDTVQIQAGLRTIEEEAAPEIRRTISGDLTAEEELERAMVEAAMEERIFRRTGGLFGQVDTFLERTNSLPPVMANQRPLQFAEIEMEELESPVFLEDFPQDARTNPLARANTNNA
T1 sequence (P13806 27-960 partner limits assumed): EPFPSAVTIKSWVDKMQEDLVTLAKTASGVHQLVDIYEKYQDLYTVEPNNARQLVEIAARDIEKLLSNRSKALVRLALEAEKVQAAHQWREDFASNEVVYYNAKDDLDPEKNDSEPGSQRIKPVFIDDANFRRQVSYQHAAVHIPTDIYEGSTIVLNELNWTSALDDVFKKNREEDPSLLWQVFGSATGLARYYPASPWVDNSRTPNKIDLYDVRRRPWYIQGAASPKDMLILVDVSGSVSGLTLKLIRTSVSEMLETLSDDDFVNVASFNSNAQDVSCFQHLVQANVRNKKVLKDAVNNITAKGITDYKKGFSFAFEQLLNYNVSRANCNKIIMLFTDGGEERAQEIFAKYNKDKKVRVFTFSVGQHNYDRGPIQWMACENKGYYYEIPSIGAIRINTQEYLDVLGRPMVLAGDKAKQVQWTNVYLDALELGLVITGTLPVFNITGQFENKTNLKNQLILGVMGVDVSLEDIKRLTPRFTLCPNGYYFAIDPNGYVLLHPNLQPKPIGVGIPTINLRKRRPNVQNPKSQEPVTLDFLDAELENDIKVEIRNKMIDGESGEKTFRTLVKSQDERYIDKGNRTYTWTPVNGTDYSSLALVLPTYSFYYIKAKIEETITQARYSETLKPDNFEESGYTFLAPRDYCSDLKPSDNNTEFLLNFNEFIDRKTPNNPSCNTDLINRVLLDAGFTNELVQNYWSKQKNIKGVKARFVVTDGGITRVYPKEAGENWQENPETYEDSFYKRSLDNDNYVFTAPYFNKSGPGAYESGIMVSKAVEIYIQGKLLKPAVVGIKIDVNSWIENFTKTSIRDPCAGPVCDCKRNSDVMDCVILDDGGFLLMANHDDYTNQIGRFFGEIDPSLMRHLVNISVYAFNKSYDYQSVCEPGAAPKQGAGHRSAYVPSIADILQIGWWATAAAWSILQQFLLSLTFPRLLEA
T1 sequence (P13806 961-1106 partner limits assumed): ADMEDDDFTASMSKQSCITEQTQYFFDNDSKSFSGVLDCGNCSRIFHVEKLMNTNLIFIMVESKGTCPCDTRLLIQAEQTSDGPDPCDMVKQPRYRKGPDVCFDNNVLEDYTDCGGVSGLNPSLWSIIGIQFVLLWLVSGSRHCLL
T1 sequence (P19517 whole entry partner): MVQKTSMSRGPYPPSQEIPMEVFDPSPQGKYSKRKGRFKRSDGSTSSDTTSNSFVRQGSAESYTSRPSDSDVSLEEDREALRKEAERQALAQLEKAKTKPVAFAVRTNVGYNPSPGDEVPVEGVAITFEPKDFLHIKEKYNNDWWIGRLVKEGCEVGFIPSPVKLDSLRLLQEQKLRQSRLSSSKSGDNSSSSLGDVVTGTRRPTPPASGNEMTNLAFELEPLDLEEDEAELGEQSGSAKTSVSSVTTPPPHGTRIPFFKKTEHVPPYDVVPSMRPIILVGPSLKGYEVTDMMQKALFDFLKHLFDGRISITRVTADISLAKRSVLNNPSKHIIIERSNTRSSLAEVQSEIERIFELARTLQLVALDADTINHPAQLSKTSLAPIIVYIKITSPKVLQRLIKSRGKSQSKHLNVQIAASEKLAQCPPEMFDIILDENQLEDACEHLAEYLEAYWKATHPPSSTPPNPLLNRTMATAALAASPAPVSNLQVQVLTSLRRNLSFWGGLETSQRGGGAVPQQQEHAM
T1 sequence (P19518 whole entry partner): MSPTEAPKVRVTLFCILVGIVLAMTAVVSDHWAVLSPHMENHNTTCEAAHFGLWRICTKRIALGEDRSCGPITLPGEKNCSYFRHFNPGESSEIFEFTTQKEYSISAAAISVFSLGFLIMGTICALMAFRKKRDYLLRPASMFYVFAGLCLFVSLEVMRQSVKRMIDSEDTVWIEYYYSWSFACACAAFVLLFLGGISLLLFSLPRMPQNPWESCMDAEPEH
As to the kind of experiment: 3H-nitrendipine binding assay on washed rabbit skeletal muscle membranes. As to conditions: read-out: Binding Assay KI (moles). As for the experimental part:
The incubation tubes were rapidly chilled in ice and the contents filtered through Whatman GF/B filters on a Millipore manifold, and the filters washed with 2×10 ml ice-cold HEPES buffer. The filters were placed in scintillation counting vials with 8 ml of Cytoscint cocktail, disrupted mechanically by shaking for 30 minutes and counted.
Drugs which interact at the dihydropyridine (DHP) site will reduce this specific binding in a dosedependent manner. The assays for the compounds of this invention were made with logarithmically spaced concentrations, the data were plotted on a probitconcentration plot, and the IC50 read off. The KI of the compound was calculated by standard techniques.
`COC(=O)C1=C(C)NC(C)=C(C(=O)OCCCN=C=S)C1c1cccc([N+](=O)[O-])c1` (stereo not shown) [Example 8, 1,4-Dihydro-2.6-dimethyl-4-(3-nitrophenyl)-3,5-pyridine dicarboxylic acid, 3-(3-isothiocyanatopropyl)-5-methyl ester]: the inhibition constant Ki (as a rule, the equilibrium dissociation constant of an inhibitor or competing ligand from its target) is 1.6 nM.
The value for `COC(=O)C1=C(C)NC(C)=C(C(=O)OCCN=C=S)C1c1cccc([N+](=O)[O-])c1` (stereo not shown) [Example 7, 1,4-Dihydro-2,6-dimethyl-4-(3-nitrophenyl)-3,5-pyridine dicarboxylic acid, 3-(2isothiocyanatoethyl)-5-methyl ester] was 1.3 nM; that for `CCOC(=O)C1=C(CCN2C(=O)c3ccccc3C2=O)NC(C)=C(C(=O)OC)C1c1cccc([N+](=O)[O-])c1` (stereo not shown) [12(e), 1,4-Dihydro-6-methyl-4(3-nitrophenyl)2-(2-phthalimidoethyl)-3,5-pyridine dicarboxylic acid-3-ethyl-5-methyl ester] was 105 nM; that for `COC(=O)C1=C(C)NC(C)=C(C(=O)OCCN)C1c1cccc([N+](=O)[O-])c1` (stereo not shown) [Example 3, 1,4-Dihydro-2,6-dimethyl-4-(3-nitrophenyl)-3,5-pyridine dicarboxylic acid, 3-(2-aminoethyl)-5-methyl ester] was greater than 100 nM.
For `CCOC(=O)C1=C(CCN2C(=O)c3ccccc3C2=O)NC(CCN2C(=O)c3ccccc3C2=O)=C(C(=O)OCC)C1c1cccc([N+](=O)[O-])c1` [Example 13, 1,4-Dihydro-4(3-nitrophenyl)-2,6-(2-phthalimidoethyl)-3,5-pyridine dicarboxylic acid, ethyl ester], the inhibition constant (Ki) was 1120 nM.
The value for `COC(=O)C1=C(C)NC(C)=C(C(=O)OCCN)C1c1cccc(C)c1` (stereo not shown) [Example 2, 1,4-Dihydro-2,6-dimethyl-4-(3-methylphenyl)-3,5-pyridine dicarboxylic acid, 3-(2-aminoethyl)-5-methyl ester] was 1250 nM.
The figure for `COC(=O)C1=C(C)NC(C)=C(C(=O)OCCCCCCN=C=S)C1c1cccc([N+](=O)[O-])c1` (stereo not shown) [Example 9, 1,4-Dihydro-2,6-dimethyl-4-(3-nitrophenyl)-3,5-pyridine dicarboxylic acid, 3-(6-isothiocyanatohexyl)-5-methyl ester] is 1.9 nM.

Source of the values: patent US4849436A, “1,4-dihydropyridines” (Nelson Research & Development Co., priority 1986, dated 1989).
